This assay deals with Lewis lung carcinoma i.m., BDF1 mice, T/C %. Nature of the assay: NCI In Vivo Anticancer Drug Screen. Data for tumor model Lewis Lung Carcinoma (intramuscular) in B6D2F1 (BDF1) mice. The gist of the method:
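Tumour-bearing mice were dosed with compound, and either their survival or their tumour size was measured. Results were expressed relative to vehicle-treated controls as T/C.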

Structures are written as SMILES. “And” between values parts separate entries of the source, which are not always exact repeats. Equal entries are not always repeated. Inconclusive results are not listed.

With `Clc1ccc2nc(CI)c(CI)nc2c1`, the T/C is 78 % of control (endpoint: mean tumor weight (est.), dose: 3.12 mg/kg/injection, schedule: Q01DX011 (ip), vehicle: saline with Tween-80, higher = larger tumour); 82 % of control (endpoint: mean tumor weight (est.), dose: 6.25 mg/kg/injection, schedule: Q01DX011 (ip), vehicle: saline with Tween-80, higher = larger tumour); 89 % of control (endpoint: mean tumor weight (est.), dose: 12.5 mg/kg/injection, schedule: Q01DX011 (ip), vehicle: saline with Tween-80, higher = larger tumour); 94 % of control (endpoint: median survival time, dose: 3.12 mg/kg/injection, schedule: Q01DX011 (ip), vehicle: saline with Tween-80, higher = longer survival); 98 % of control (endpoint: median survival time, dose: 6.25 mg/kg/injection, schedule: Q01DX011 (ip), vehicle: saline with Tween-80, higher = longer survival); 88 % of control (endpoint: median survival time, dose: 12.5 mg/kg/injection, schedule: Q01DX011 (ip), vehicle: saline with Tween-80, higher = longer survival).

Take `CC1=C2C(=C[C@@](C)(CO)[C@@H]2O)C(=O)[C@](C)(O)C12CC2`: the T/C is 89 % of control (endpoint: mean tumor weight, dose: 0.1 mg/kg/injection, schedule: Q01DX011 (ip), vehicle: other, higher = larger tumour); 65 % of control (endpoint: mean tumor weight, dose: 0.2 mg/kg/injection, schedule: Q01DX011 (ip), vehicle: other, higher = larger tumour); 58 % of control (endpoint: mean tumor weight, dose: 0.4 mg/kg/injection, schedule: Q01DX011 (ip), vehicle: other, higher = larger tumour).

Turning to `COC(=O)Nc1nc2ccc(C(=O)c3cccs3)cc2[nH]1`, the T/C was 101 % of control (endpoint: median survival time, dose: 35.0 mg/kg/injection, schedule: Q03DX008 (ip), vehicle: other, higher = longer survival) and 86 % of control (endpoint: median survival time, dose: 70.0 mg/kg/injection, schedule: Q03DX008 (ip), vehicle: other, higher = longer survival).

As to `Cc1c2ccncc2c(C)c2c1[nH]c1ccccc12`, the T/C was 100 % of control (endpoint: median survival time, dose: 1.56 mg/kg/injection, schedule: Q01DX011 (ip), vehicle: water, higher = longer survival); 100 % of control (endpoint: median survival time, dose: 3.12 mg/kg/injection, schedule: Q01DX011 (ip), vehicle: water, higher = longer survival); 108 % of control (endpoint: median survival time, dose: 6.25 mg/kg/injection, schedule: Q01DX011 (ip), vehicle: water, higher = longer survival).

As to `CC1CCC(NC(=O)N(CCCl)N=O)CC1` (configuration not stated), the T/C is 83 % of control (endpoint: mean tumor weight, dose: 3.12 mg/kg/injection, schedule: Q01DX011 (ip), vehicle: saline, higher = larger tumour); 80 % of control (endpoint: mean tumor weight, dose: 3.12 mg/kg/injection, schedule: Q06HX008 (ip), vehicle: saline, higher = larger tumour); 63 % of control (endpoint: mean tumor weight, dose: 6.25 mg/kg/injection, schedule: Q01DX011 (ip), vehicle: saline, higher = larger tumour); 41 % of control (endpoint: mean tumor weight, dose: 6.25 mg/kg/injection, schedule: Q06HX004 (ip), vehicle: saline, higher = larger tumour); 93 % of control (endpoint: mean tumor weight, dose: 6.25 mg/kg/injection, schedule: Q06HX008 (ip), vehicle: saline, higher = larger tumour); 111 % of control (endpoint: mean tumor weight, dose: 8.4 mg/kg/injection, schedule: Q01DX001 (sc), vehicle: Klucel (hydroxypropylcellulose) (HPC), higher = larger tumour). In addition, the T/C was 76 % of control (endpoint: mean tumor weight, dose: 12.5 mg/kg/injection, schedule: Q01DX001 (ip), vehicle: saline, higher = larger tumour); 11 % of control (endpoint: mean tumor weight, dose: 12.5 mg/kg/injection, schedule: Q06HX008 (ip), vehicle: saline, higher = larger tumour); 99 % of control (endpoint: mean tumor weight, dose: 12.5 mg/kg/injection, schedule: Q08DX002 (ip), vehicle: saline, higher = larger tumour); 56 % of control (endpoint: mean tumor weight, dose: 14.0 mg/kg/injection, schedule: Q01DX001 (sc), vehicle: Klucel (hydroxypropylcellulose) (HPC), higher = larger tumour); 35 % of control (endpoint: mean tumor weight, dose: 23.0 mg/kg/injection, schedule: Q01DX001 (sc), vehicle: Klucel (hydroxypropylcellulose) (HPC), higher = larger tumour); 38 % of control (endpoint: mean tumor weight, dose: 25.0 mg/kg/injection, schedule: Q01DX001 (ip), vehicle: saline, higher = larger tumour). Moreover, the T/C was 30 % of control (endpoint: mean tumor weight, dose: 25.0 mg/kg/injection, schedule: Q08DX002 (ip), vehicle: saline, higher = larger tumour); 21 % of control (endpoint: mean tumor weight, dose: 39.0 mg/kg/injection, schedule: Q01DX001 (sc), vehicle: Klucel (hydroxypropylcellulose) (HPC), higher = larger tumour); 12 % of control (endpoint: mean tumor weight, dose: 50.0 mg/kg/injection, schedule: Q01DX001 (ip), vehicle: saline, higher = larger tumour); 8 % of control (endpoint: mean tumor weight, dose: 50.0 mg/kg/injection, schedule: Q08DX002 (ip), vehicle: saline, higher = larger tumour); 112 % of control (endpoint: median survival time, dose: 1.0 mg/kg/injection, schedule: Q01DX009 (ip), vehicle: saline + alcohol, higher = longer survival); 111 % of control (endpoint: median survival time, dose: 2.5 mg/kg/injection, schedule: Q01DX015 (ip), vehicle: saline, higher = longer survival). The T/C is, setting by setting: (endpoint: median survival time, dose: 3.12 mg/kg/injection, schedule: Q01DX017 (ip), vehicle: saline, higher = longer survival) 100 % of control; (endpoint: median survival time, dose: 3.12 mg/kg/injection, schedule: Q06HX012 (ip), vehicle: saline, higher = longer survival) 97 % of control; (endpoint: median survival time, dose: 4.0 mg/kg/injection, schedule: Q01DX009 (ip), vehicle: saline + alcohol, higher = longer survival) 104 % of control and 118 % of control; (endpoint: median survival time, dose: 4.0 mg/kg/injection, schedule: Q01DX011 (ip), vehicle: saline with Tween-80, higher = longer survival) 100 % of control and 114 % of control; (endpoint: median survival time, dose: 5.0 mg/kg/injection, schedule: Q01DX015 (ip), vehicle: saline, higher = longer survival) 97 % of control and 107 % of control; (endpoint: median survival time, dose: 6.25 mg/kg/injection, schedule: Q06HX004 (ip), vehicle: saline, higher = longer survival) 106 % of control. Moreover, the T/C is 95 % of control (endpoint: median survival time, dose: 6.3 mg/kg/injection, schedule: Q01DX015 (ip), vehicle: saline, higher = longer survival); 90 % of control (endpoint: median survival time, dose: 7.5 mg/kg/injection, schedule: Q07DX003 (ip), vehicle: saline, higher = longer survival); 90 % of control (endpoint: median survival time, dose: 7.9 mg/kg/injection, schedule: Q01DX015 (ip), vehicle: saline, higher = longer survival); 156 % of control (endpoint: median survival time, dose: 8.0 mg/kg/injection, schedule: Q01DX009 (ip), vehicle: saline + alcohol, higher = longer survival); 114 % of control (endpoint: median survival time, dose: 8.4 mg/kg/injection, schedule: Q01DX001 (sc), vehicle: Klucel (hydroxypropylcellulose) (HPC), higher = longer survival); 116 % of control (endpoint: median survival time, dose: 10.0 mg/kg/injection, schedule: Q01DX001 (ip), vehicle: saline + alcohol, higher = longer survival). Further, the T/C was 104 % of control (endpoint: median survival time, dose: 12.5 mg/kg/injection, schedule: Q01DX001 (ip), vehicle: saline, higher = longer survival); 158 % of control (endpoint: median survival time, dose: 12.5 mg/kg/injection, schedule: Q06HX004 (ip), vehicle: saline, higher = longer survival); 93 % of control (endpoint: median survival time, dose: 12.5 mg/kg/injection, schedule: Q06HX012 (ip), vehicle: saline, higher = longer survival); 108 % of control (endpoint: median survival time, dose: 12.5 mg/kg/injection, schedule: Q08DX003 (ip), vehicle: saline, higher = longer survival); 158 % of control (endpoint: median survival time, dose: 14.0 mg/kg/injection, schedule: Q01DX001 (sc), vehicle: Klucel (hydroxypropylcellulose) (HPC), higher = longer survival); 104 % of control (endpoint: median survival time, dose: 14.0 mg/kg/injection, schedule: Q07DX003 (ip), vehicle: saline, higher = longer survival). The T/C is, setting by setting: (endpoint: median survival time, dose: 15.0 mg/kg/injection, schedule: Q07DX003 (ip), vehicle: saline, higher = longer survival) 90 % of control; (endpoint: median survival time, dose: 20.0 mg/kg/injection, schedule: Q01DX001 (ip), vehicle: saline + alcohol, higher = longer survival) 92 % of control; (endpoint: median survival time, dose: 23.0 mg/kg/injection, schedule: Q01DX001 (sc), vehicle: Klucel (hydroxypropylcellulose) (HPC), higher = longer survival) 177 % of control; (endpoint: median survival time, dose: 23.0 mg/kg/injection, schedule: Q07DX003 (ip), vehicle: saline, higher = longer survival) 112 % of control; (endpoint: median survival time, dose: 24.0 mg/kg/injection, schedule: Q01DX001 (ip), vehicle: saline, higher = longer survival) 102 % of control; (endpoint: median survival time, dose: 24.0 mg/kg/injection, schedule: Q07DX003 (ip), vehicle: saline, higher = longer survival) 175 % of control. Further, the T/C by setting is: (endpoint: median survival time, dose: 25.0 mg/kg/injection, schedule: Q01DX001 (ip), vehicle: saline, higher = longer survival) 122 % of control; (endpoint: median survival time, dose: 25.0 mg/kg/injection, schedule: Q08DX003 (ip), vehicle: saline, higher = longer survival) 91 % of control; (endpoint: median survival time, dose: 30.0 mg/kg/injection, schedule: Q01DX001 (ip), vehicle: saline + alcohol, higher = longer survival) 92 % of control; (endpoint: median survival time, dose: 30.0 mg/kg/injection, schedule: Q01DX001 (ip), vehicle: saline, higher = longer survival) 197 % of control; (endpoint: median survival time, dose: 30.0 mg/kg/injection, schedule: Q07DX003 (ip), vehicle: saline, higher = longer survival) 197 % of control and 204 % of control; (endpoint: median survival time, dose: 30.0 mg/kg/injection, schedule: Q14DX002 (ip), vehicle: saline, higher = longer survival) 187 % of control. The T/C (endpoint: median survival time, dose: 39.0 mg/kg/injection, schedule: Q07DX003 (ip), vehicle: saline, higher = longer survival) was 151 % of control; the T/C (endpoint: median survival time, dose: 45.0 mg/kg/injection, schedule: Q01DX001 (ip), vehicle: saline, higher = longer survival) is 151 % of control; the T/C (endpoint: median survival time, dose: 45.0 mg/kg/injection, schedule: Q07DX003 (ip), vehicle: saline, higher = longer survival) was 117 % of control; the T/C (endpoint: median survival time, dose: 45.0 mg/kg/injection, schedule: Q14DX002 (ip), vehicle: saline, higher = longer survival) is 117 % of control; the T/C (endpoint: median survival time, dose: 50.0 mg/kg/injection, schedule: Q01DX001 (ip), vehicle: saline, higher = longer survival) is 181 % of control; the T/C (endpoint: median survival time, dose: 56.0 mg/kg/injection, schedule: Q07DX003 (ip), vehicle: saline, higher = longer survival) was 100 % of control.

For `O=C(O)C1CSCN1` (configuration not stated), the T/C was 118 % of control (endpoint: median survival time, dose: 12.5 mg/kg/injection, schedule: Q01DX011 (ip), vehicle: saline, higher = longer survival); 105 % of control (endpoint: median survival time, dose: 25.0 mg/kg/injection, schedule: Q01DX011 (ip), vehicle: saline, higher = longer survival); 97 % of control (endpoint: median survival time, dose: 50.0 mg/kg/injection, schedule: Q01DX011 (ip), vehicle: saline, higher = longer survival); 105 % of control (endpoint: median survival time, dose: 100.0 mg/kg/injection, schedule: Q01DX011 (ip), vehicle: saline, higher = longer survival).

The record behind these values is PubChem BioAssay AID272 (DTP/NCI, 2004).
